Laboratory results from ChEMBL document CHEMBL4507261, “Data for DCP probe A-192621” (2021).

Experiments:
[1] = target: Tyrosine-protein kinase Tec (Homo sapiens) (UniProt P42680); settings: Compound concentration 1000.0 nM
[2] = target: Serine/threonine-protein kinase 24 (Homo sapiens) (UniProt Q9Y6E0); settings: Compound concentration 1000.0 nM
[3] = target: Dual specificity tyrosine-phosphorylation-regulated kinase 2 (Homo sapiens) (UniProt Q92630); settings: Compound concentration 1000.0 nM
[4] = target: Atypical kinase COQ8A, mitochondrial (Homo sapiens) (UniProt Q8NI60); settings: Compound concentration 1000.0 nM
[5] = target: cGMP-inhibited 3',5'-cyclic phosphodiesterase 3A (Homo sapiens) (UniProt Q14432); test: PDE3A (h) Eurofins-Cerep enzyme and uptake assay; settings: Compound concentration 10.0 uM
[6] = target: Vascular endothelial growth factor receptor 1 (Homo sapiens) (UniProt P17948); settings: Compound concentration 1000.0 nM
[7] = target: Non-receptor tyrosine-protein kinase TYK2 (Homo sapiens) (UniProt P29597); settings: Compound concentration 1000.0 nM
[8] = target: Serine/threonine-protein kinase MARK1 (Homo sapiens) (UniProt Q9P0L2); settings: Compound concentration 1000.0 nM
[9] = target: Interleukin-1 receptor-associated kinase 3 (Homo sapiens) (UniProt Q9Y616); settings: Compound concentration 1000.0 nM
[10] = target: Serine/threonine-protein kinase 33 (Homo sapiens) (UniProt Q9BYT3); settings: Compound concentration 1000.0 nM
[11] = target: T1, Muscarinic acetylcholine receptor M5 (Homo sapiens) (UniProt P08912); test: M5 (h) Eurofins-Cerep binding assay; set-up: ligand concentration 0.3 nM; settings: filed as antagonist, Compound concentration 10.0 uM
T1 sequence (whole entry): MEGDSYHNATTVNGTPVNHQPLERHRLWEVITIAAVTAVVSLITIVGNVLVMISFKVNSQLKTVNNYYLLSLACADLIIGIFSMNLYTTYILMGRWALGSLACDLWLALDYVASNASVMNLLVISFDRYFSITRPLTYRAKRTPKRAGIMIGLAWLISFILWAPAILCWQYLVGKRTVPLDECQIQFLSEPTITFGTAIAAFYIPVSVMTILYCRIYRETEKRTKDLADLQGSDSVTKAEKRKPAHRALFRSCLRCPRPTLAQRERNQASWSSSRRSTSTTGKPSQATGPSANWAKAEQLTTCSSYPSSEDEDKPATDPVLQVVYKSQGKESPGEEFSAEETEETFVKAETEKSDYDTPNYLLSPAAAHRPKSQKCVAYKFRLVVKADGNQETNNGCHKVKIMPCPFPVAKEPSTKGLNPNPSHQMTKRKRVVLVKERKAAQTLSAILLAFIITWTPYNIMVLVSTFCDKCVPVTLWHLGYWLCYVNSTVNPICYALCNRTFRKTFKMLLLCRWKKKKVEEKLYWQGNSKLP

[12] = target: Ephrin type-A receptor 4 (Homo sapiens) (UniProt P54764); settings: Compound concentration 1000.0 nM
[13] = target: NUAK family SNF1-like kinase 1 (Homo sapiens) (UniProt O60285); settings: Compound concentration 1000.0 nM
[14] = target: Serine/threonine-protein kinase Nek10 (Homo sapiens) (UniProt Q6ZWH5); settings: Compound concentration 1000.0 nM
[15] = target: Mitogen-activated protein kinase kinase kinase 14 (Homo sapiens) (UniProt Q99558); settings: Compound concentration 1000.0 nM
[16] = target: Phosphatidylinositol 5-phosphate 4-kinase type-2 gamma (Homo sapiens) (UniProt Q8TBX8); settings: Compound concentration 1000.0 nM
[17] = target: 5-hydroxytryptamine receptor 1B (Homo sapiens) (UniProt P28222); test: 5-HT1B(h) Eurofins-Cerep binding assay; set-up: ligand concentration 1 nM; settings: filed as antagonist, Compound concentration 10.0 uM
[18] = target: Protein-tyrosine kinase 2-beta (Homo sapiens) (UniProt Q14289); settings: Compound concentration 1000.0 nM
[19] = target: Eukaryotic translation initiation factor 2-alpha kinase 1 (Homo sapiens) (UniProt Q9BQI3); settings: Compound concentration 1000.0 nM
[20] = target: T2, Alpha-2B adrenergic receptor (Homo sapiens) (UniProt P18089); test: Alpha2B (h) Eurofins-Cerep binding assay; set-up: ligand concentration 2.5 nM; settings: filed as antagonist, Compound concentration 10.0 uM
T2 sequence (whole entry): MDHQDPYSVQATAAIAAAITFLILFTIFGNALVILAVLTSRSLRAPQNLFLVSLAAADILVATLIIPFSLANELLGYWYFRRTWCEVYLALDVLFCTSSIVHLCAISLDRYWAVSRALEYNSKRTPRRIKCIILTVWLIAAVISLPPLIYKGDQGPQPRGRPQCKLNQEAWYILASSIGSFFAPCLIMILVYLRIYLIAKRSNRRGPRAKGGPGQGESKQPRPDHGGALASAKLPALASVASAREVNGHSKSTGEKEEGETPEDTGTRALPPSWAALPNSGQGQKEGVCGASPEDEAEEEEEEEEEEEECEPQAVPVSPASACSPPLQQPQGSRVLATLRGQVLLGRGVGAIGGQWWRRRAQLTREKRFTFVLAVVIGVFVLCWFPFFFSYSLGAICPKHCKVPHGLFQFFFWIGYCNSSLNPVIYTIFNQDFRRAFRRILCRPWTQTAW

[21] = target: Cyclin-dependent kinase 19 (Homo sapiens) (UniProt Q9BWU1); settings: Compound concentration 1000.0 nM
[22] = target: Serine/threonine-protein kinase MARK2 (Homo sapiens) (UniProt Q7KZI7); settings: Compound concentration 1000.0 nM
[23] = target: Activin receptor type-2B (Homo sapiens) (UniProt Q13705); settings: Compound concentration 1000.0 nM
[24] = target: Mitogen-activated protein kinase 15 (Homo sapiens) (UniProt Q8TD08); settings: Compound concentration 1000.0 nM
[25] = test system: Receptor-type tyrosine-protein kinase FLT3 (Homo sapiens), P36888 [D835H]; settings: Compound concentration 1000.0 nM
[26] = target: Focal adhesion kinase 1 (Homo sapiens) (UniProt Q05397); settings: Compound concentration 1000.0 nM
[27] = target: Cyclin-dependent kinase-like 3 (Homo sapiens) (UniProt Q8IVW4); settings: Compound concentration 1000.0 nM
[28] = target: Cyclin-dependent kinase 3 (Homo sapiens) (UniProt Q00526); settings: Compound concentration 1000.0 nM
[29] = target: Prostaglandin G/H synthase 2 (Homo sapiens) (UniProt P35354); test: COX2(h) Eurofins-Cerep enzyme and uptake assay; settings: Compound concentration 10.0 uM
[30] = target: Ephrin type-B receptor 6 (Homo sapiens) (UniProt O15197); settings: Compound concentration 1000.0 nM
[31] = target: Homeodomain-interacting protein kinase 1 (Homo sapiens) (UniProt Q86Z02); settings: Compound concentration 1000.0 nM
[32] = target: Mitogen-activated protein kinase kinase kinase 2 (Homo sapiens) (UniProt Q9Y2U5); settings: Compound concentration 1000.0 nM

Chain of 5-hydroxytryptamine receptor 1B (Homo sapiens) (P28222 whole entry): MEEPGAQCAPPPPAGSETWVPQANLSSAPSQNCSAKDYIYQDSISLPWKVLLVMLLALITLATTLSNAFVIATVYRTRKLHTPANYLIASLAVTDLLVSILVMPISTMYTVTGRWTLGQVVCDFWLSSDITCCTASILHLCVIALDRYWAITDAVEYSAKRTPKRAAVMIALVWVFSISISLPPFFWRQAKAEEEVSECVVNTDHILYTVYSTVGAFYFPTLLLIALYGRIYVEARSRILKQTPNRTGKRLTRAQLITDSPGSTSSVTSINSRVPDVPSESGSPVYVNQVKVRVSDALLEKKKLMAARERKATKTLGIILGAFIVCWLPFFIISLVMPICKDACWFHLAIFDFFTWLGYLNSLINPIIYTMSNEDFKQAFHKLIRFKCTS
Chain of Cyclin-dependent kinase 19 (Homo sapiens) (Q9BWU1 whole entry): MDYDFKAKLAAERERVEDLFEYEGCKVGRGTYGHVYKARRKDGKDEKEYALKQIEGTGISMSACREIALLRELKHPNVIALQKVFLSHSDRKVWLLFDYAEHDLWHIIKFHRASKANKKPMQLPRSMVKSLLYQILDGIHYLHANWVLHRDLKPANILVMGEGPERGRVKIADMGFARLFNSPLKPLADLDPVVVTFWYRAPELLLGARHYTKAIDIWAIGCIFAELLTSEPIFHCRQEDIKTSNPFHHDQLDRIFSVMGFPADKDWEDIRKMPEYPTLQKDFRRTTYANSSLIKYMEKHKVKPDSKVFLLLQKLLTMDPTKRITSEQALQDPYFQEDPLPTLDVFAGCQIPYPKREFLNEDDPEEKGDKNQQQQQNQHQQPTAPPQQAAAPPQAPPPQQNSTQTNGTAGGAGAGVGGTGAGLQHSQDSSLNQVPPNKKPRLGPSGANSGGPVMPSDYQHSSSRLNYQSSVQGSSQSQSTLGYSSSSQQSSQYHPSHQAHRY
Chain of Prostaglandin G/H synthase 2 (Homo sapiens) (P35354 whole entry): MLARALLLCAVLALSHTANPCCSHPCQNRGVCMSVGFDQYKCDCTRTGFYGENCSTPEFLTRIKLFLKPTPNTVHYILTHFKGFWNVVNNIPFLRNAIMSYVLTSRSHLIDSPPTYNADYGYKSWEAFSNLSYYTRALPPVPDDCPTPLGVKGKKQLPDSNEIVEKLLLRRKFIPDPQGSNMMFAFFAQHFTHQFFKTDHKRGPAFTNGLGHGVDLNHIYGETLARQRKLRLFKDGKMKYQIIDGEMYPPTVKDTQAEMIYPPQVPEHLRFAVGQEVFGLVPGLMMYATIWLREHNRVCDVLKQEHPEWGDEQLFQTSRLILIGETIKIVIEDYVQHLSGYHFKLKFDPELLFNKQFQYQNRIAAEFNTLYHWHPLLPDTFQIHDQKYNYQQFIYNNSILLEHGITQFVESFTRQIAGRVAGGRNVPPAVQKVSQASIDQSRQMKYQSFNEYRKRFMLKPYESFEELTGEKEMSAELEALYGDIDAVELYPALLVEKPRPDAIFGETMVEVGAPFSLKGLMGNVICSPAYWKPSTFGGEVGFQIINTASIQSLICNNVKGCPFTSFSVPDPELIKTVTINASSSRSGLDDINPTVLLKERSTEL
Chain of Cyclin-dependent kinase 3 (Homo sapiens) (Q00526 whole entry, looked up): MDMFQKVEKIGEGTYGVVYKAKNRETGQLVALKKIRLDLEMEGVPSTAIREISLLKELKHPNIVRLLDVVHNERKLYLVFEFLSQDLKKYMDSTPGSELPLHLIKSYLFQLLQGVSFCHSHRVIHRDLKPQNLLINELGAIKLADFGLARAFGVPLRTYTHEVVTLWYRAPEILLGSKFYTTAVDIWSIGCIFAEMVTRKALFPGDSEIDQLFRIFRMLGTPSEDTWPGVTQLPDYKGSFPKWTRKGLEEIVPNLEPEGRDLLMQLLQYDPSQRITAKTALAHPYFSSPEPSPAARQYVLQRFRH
Chain of Ephrin type-A receptor 4 (Homo sapiens) (P54764 whole entry): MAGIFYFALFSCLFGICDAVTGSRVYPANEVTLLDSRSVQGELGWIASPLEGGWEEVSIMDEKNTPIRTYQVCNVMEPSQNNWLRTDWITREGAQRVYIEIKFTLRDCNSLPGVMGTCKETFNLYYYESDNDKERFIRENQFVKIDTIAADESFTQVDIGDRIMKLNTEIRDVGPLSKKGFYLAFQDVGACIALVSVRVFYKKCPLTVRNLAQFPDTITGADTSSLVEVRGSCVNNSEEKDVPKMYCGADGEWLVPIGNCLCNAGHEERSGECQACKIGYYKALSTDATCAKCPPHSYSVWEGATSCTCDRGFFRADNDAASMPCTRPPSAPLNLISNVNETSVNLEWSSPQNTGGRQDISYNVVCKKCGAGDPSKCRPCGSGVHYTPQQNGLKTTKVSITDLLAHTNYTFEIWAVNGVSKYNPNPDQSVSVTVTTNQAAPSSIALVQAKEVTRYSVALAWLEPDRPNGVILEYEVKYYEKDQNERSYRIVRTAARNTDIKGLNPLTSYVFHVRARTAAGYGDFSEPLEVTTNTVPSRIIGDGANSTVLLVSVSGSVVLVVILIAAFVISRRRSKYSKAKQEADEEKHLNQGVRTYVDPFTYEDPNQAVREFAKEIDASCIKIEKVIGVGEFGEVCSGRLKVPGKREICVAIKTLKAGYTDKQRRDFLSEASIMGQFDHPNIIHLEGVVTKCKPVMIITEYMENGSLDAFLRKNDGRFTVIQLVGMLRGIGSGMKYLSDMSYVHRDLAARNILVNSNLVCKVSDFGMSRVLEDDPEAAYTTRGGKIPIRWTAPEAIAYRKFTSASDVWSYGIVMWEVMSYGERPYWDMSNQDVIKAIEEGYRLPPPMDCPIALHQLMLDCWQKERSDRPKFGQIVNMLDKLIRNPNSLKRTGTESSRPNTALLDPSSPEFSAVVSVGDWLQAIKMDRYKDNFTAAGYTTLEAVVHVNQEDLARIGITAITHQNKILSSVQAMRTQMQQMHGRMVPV
Chain of Tyrosine-protein kinase Tec (Homo sapiens) (P42680 whole entry): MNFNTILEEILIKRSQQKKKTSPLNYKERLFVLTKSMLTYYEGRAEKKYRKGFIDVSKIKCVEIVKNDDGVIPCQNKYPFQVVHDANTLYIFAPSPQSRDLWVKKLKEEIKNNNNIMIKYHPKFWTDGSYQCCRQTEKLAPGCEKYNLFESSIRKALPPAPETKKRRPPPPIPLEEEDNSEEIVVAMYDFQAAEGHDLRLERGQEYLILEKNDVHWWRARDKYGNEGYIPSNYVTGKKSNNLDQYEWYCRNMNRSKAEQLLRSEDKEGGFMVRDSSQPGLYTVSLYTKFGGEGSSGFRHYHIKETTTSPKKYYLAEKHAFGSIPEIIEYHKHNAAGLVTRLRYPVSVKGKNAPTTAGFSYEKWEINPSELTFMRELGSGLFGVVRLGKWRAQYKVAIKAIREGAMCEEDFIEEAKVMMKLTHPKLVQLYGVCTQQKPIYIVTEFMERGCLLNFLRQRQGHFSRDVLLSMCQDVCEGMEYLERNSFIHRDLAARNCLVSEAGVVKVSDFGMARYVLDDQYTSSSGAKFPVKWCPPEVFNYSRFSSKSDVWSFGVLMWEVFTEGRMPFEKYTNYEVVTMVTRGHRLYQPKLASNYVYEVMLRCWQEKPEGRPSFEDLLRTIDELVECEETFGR
Chain of Cyclin-dependent kinase-like 3 (Homo sapiens) (Q8IVW4 whole entry, looked up): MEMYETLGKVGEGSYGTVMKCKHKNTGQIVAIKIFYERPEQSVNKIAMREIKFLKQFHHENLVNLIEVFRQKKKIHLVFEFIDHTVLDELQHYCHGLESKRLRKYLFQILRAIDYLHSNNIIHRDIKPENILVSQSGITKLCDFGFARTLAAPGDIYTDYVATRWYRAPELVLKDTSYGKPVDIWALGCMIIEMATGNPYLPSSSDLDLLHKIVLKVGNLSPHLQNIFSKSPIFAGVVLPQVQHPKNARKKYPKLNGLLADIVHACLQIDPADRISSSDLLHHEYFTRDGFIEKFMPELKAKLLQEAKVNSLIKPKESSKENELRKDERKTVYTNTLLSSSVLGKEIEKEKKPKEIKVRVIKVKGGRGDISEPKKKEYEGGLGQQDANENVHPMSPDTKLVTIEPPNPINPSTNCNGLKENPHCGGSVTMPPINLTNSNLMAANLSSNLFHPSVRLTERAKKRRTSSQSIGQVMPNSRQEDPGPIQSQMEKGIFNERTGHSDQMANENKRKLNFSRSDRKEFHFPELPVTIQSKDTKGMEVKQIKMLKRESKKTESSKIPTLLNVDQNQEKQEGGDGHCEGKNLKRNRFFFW
Chain of Dual specificity tyrosine-phosphorylation-regulated kinase 2 (Homo sapiens) (Q92630 whole entry): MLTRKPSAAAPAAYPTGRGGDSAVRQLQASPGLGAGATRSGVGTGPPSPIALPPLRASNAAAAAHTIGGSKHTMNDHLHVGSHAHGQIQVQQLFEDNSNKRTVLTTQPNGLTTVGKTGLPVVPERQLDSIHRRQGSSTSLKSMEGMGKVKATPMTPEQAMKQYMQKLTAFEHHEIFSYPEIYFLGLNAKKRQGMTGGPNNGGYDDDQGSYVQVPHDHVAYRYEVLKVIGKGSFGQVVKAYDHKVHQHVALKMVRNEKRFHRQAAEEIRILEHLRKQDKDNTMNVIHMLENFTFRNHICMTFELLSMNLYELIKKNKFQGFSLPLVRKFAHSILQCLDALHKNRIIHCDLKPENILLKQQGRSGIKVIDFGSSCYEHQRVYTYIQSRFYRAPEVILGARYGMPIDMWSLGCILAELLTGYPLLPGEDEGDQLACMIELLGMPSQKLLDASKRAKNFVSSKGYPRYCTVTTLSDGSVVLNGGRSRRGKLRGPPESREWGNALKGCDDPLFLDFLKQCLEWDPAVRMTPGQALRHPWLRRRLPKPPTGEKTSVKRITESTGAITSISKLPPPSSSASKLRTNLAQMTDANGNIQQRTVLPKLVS

Row | SMILES | residual activity [1] | residual activity [2] | residual activity [3] | residual activity [4] | % Inhibition of Control Values (Mean n=2) [5] | residual activity [6] | residual activity [7] | residual activity [8] | residual activity [9] | residual activity [10] | % Inhibition of Control Specific Binding (Mean n=2) [11] | residual activity [12] | residual activity [13] | residual activity [14] | residual activity [15] | residual activity [16] | % Inhibition of Control Specific Binding (Mean n=2) [17] | residual activity [18] | residual activity [19] | % Inhibition of Control Specific Binding (Mean n=2) [20] | other results
1 | CCCOc1ccc([C@H]2[C@H](C(=O)O)[C@@H](c3ccc4c(c3)OCO4)CN2CC(=O)Nc2c(CC)cccc2CC)cc1 [A-192621] | 100% | 84% | 74% | 100% | 29% | 97% | 80% | 100% | 100% | 65% | 10% | 97% | 83% | 82% | 85% | 49% | 12.3% | 98% | 84% | 7.4% | residual activity [21]: 95%; residual activity [22]: 88%; residual activity [23]: 93%; residual activity [24]: 100%; residual activity [25]: 92%; residual activity [26]: 86%; residual activity [27]: 92%; residual activity [28]: 95%; % Inhibition of Control Values (Mean n=2) [29]: 44%; residual activity [30]: 65%; residual activity [31]: 75%; residual activity [32]: 82%
2 | CCCOc1ccc([C@@H]2[C@@H](C(=O)O)[C@H](c3ccc4c(c3)OCO4)CN2CC(=O)Nc2c(CC)cccc2CC)cc1 [A-1806262] | 96% | 74% | 92% | 100% | 34.5% | 94% | 81% | 100% | 100% | 69% | 0.9% | 75% | 99% | 96% | 82% | 94% | 13.4% | 97% | 86% | 1.5% | residual activity [21]: 89%; residual activity [22]: 92%; residual activity [23]: 96%; residual activity [24]: 100%; residual activity [25]: 100%; residual activity [26]: 88%; residual activity [27]: 95%; residual activity [28]: 100%; % Inhibition of Control Values (Mean n=2) [29]: 34%; residual activity [30]: 77%; residual activity [31]: 79%; residual activity [32]: 100%
